How the values were obtained:
CK1α = biological target: T1, CK1α (Homo sapiens, UniProt P48729+Q96SW2); test: HiBiT degradation assay, CK1α, Procedure A; format: cell-based; conditions: six hours
T1 construct: CSNK1A1-HiBit KI HEK293(LgBit) Cells; host or cells: HEK293(LgBit) knock-in cells
Method in brief: (§1)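 DC50 and Ymin (% remaining) were derived by four-parameter fitting of luminescence data. The data come from a six-hour, 37° C compound exposure of cells in DMEM/10% FBS over a ten-point range, 10 μM to 0.005 μM, followed by Nano-Glo HiBiT lytic detection.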

GSPT1 = GSPT1 (Homo sapiens, UniProt P15170+Q96SW2); test: HiBiT degradation assay, GSPT1, Procedure A; format: cell-based; parameters: HiBit-GSPT1 KI HEK293(LgBit) Cells; host or cells: HEK293(LgBit) knock-in cells; conditions: six hours
Chain of GSPT1 (P15170 whole entry): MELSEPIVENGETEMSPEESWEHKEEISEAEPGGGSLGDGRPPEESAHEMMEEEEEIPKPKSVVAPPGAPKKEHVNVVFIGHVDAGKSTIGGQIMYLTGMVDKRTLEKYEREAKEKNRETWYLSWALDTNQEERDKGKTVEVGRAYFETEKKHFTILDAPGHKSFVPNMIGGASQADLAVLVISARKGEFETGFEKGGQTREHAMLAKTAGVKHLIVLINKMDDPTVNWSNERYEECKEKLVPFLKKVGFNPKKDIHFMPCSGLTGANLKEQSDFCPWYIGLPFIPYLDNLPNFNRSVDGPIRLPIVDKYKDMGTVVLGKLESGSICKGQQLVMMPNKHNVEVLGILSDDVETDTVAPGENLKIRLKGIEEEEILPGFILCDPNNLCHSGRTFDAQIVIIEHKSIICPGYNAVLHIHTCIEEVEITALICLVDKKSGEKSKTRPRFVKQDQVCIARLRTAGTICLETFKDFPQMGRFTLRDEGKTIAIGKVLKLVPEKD
Chain of GSPT1 (Q96SW2 whole entry): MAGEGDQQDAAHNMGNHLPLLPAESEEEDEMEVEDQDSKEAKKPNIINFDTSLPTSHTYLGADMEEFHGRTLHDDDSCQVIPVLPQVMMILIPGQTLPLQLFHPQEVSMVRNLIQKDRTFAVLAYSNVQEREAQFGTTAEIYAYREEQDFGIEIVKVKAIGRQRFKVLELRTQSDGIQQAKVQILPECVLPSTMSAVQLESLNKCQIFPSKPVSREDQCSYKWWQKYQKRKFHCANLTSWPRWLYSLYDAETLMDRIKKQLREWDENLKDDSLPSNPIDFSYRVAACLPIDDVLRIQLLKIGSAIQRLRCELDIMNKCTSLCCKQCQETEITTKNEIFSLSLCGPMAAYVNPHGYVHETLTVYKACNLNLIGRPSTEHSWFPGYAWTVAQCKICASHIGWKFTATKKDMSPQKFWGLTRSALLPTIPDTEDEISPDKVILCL
Chain of GSPT1 (Q16531 whole entry partner): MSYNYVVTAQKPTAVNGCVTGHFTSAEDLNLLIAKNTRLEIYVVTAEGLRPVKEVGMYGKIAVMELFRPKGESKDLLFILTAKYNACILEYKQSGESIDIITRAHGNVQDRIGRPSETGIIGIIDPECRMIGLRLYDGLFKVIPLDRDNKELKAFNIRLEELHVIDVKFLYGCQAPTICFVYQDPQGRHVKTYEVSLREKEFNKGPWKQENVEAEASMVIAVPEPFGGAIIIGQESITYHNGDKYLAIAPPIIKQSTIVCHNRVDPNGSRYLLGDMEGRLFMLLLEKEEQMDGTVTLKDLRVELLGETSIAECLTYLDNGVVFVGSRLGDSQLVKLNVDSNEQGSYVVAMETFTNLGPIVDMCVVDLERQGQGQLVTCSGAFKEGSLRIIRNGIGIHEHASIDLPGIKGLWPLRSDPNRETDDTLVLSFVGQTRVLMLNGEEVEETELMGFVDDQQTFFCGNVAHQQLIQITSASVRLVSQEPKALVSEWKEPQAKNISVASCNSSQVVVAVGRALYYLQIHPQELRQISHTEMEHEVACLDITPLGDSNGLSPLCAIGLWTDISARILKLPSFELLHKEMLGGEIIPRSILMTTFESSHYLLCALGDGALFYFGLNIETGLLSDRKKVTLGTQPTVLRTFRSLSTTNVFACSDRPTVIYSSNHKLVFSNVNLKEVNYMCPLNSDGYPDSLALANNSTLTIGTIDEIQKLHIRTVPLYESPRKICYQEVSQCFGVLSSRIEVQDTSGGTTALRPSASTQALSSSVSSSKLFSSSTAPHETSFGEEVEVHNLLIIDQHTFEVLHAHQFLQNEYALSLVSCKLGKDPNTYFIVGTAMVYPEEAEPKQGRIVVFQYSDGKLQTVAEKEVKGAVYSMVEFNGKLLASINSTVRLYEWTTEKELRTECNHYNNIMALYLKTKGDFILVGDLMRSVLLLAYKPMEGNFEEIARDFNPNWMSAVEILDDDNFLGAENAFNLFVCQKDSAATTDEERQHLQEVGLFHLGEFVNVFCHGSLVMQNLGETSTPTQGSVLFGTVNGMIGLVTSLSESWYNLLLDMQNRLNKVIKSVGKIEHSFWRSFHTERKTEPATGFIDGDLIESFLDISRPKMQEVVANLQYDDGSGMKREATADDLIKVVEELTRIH
Method in brief: as §1

T1 sequence (P48729 whole entry): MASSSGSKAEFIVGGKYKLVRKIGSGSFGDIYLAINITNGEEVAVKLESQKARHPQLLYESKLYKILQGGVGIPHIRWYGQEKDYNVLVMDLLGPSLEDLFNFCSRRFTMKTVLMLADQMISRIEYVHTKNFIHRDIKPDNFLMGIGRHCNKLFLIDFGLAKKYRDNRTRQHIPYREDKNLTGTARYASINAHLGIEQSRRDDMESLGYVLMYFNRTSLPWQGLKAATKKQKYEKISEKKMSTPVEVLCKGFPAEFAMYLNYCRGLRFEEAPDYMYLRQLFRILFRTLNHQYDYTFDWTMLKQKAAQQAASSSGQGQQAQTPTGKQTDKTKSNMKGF
T1 sequence (Q96SW2 whole entry): as the sequence (Q96SW2 whole entry) above
T1 sequence (Q16531 whole entry partner): as the sequence (Q16531 whole entry partner) above

Structure (SMILES)	CK1α Ymin (CK1α)	DC50 (CK1α) [nM]	DC50 (GSPT1) [nM]	GSPT1 Ymin (GSPT1)
Cn1ncc(-c2ccc3c(c2)CN(C2CCC(=O)NC2=O)C3=O)c1-c1ccc2scnc2c1 (stereo not drawn) [Example 392]	E (E = >25-75% remaining)	< 25	≥ 25	F (F = >75-100% remaining)
Cn1ncc(-c2ccc3c(c2)CN(C2CCC(=O)NC2=O)C3=O)c1-c1ccc2ncsc2c1 (stereo not drawn) [Example 393]	D (D = >10- 25% remaining)	< 25	≥ 25	F (F = >75-100% remaining)
Cn1ncc(-c2ccc3c(c2)CN(C2CCC(=O)NC2=O)C3=O)c1-c1cnc2sccc2c1 (stereo not drawn) [Example 394]	E (E = >25-75% remaining)	≥ 25	≥ 25	F (F = >75-100% remaining)
Cn1ncc(-c2ccc3c(c2)CN(C2CCC(=O)NC2=O)C3=O)c1-c1cnn(-c2ccccc2)c1 (stereo not drawn) [Example 395]	F (F = >75-100% remaining)	< 25	< 25	E (E = >25-75% remaining)
Cn1ncc(-c2ccc3c(c2)CN(C2CCC(=O)NC2=O)C3=O)c1-c1ccn(-c2ccc(F)cc2)n1 (stereo not drawn) [Example 396]	E (E = >25-75% remaining)	< 25	≥ 25	F (F = >75-100% remaining)
Cc1ccc(-c2c(-c3ccc4c(c3)CN(C3CCC(=O)NC3=O)C4=O)ncn2C)cn1 (stereo not drawn) [Example 397]	D (D = >10- 25% remaining)	≥ 25	≥ 25	F (F = >75-100% remaining)
Cc1cc(-c2c(-c3ccc4c(c3)CN(C3CCC(=O)NC3=O)C4=O)ncn2C)ccn1 (stereo not drawn) [Example 398]	D (D = >10- 25% remaining)	< 25	< 25	F (F = >75-100% remaining)
Cn1cnc(-c2ccc3c(c2)CN(C2CCC(=O)NC2=O)C3=O)c1-c1cccc(C#N)n1 (stereo not drawn) [Example 399]	D (D = >10- 25% remaining)	< 25	≥ 25	F (F = >75-100% remaining)
Cn1cnc(-c2ccc3c(c2)CN(C2CCC(=O)NC2=O)C3=O)c1-c1ccc(=O)n(C)c1 (stereo not drawn) [Example 400]	D (D = >10- 25% remaining)	≥ 25	≥ 25	F (F = >75-100% remaining)
Cn1cnc(-c2ccc3c(c2)CN(C2CCC(=O)NC2=O)C3=O)c1-c1ccc2nc[nH]c2c1 (stereo not drawn) [Example 401]	C (C = 0-10% remaining)	< 25	≥ 25	E (E = >25-75% remaining)
Cn1cnc(-c2ccc3c(c2)CN(C2CCC(=O)NC2=O)C3=O)c1-c1ccc2scnc2c1 (stereo not drawn) [Example 402]	E (E = >25-75% remaining)	< 25	≥ 25	F (F = >75-100% remaining)
Cn1cnc(-c2ccc3c(c2)CN(C2CCC(=O)NC2=O)C3=O)c1-c1ccc(N2CCCCC2)nc1 (stereo not drawn) [Example 403]	D (D = >10- 25% remaining)	< 25	≥ 25	F (F = >75-100% remaining)
Cn1cnc(-c2ccc3c(c2)CN(C2CCC(=O)NC2=O)C3=O)c1-c1ccc(N2CCOCC2)nc1 (stereo not drawn) [Example 404]	E (E = >25-75% remaining)	≥ 25	≥ 25	F (F = >75-100% remaining)
Cn1cnc(-c2ccc3c(c2)CN(C2CCC(=O)NC2=O)C3=O)c1-c1cncc(OCc2ccccc2)c1 (stereo not drawn) [Example 405]	F (F = >75-100% remaining)	< 25	< 25	F (F = >75-100% remaining)
Cn1cnc(-c2ccc3c(c2)CN(C2CCC(=O)NC2=O)C3=O)c1-c1cnn(Cc2ccccc2)c1 (stereo not drawn) [Example 406]	D (D = >10- 25% remaining)	≥ 25	< 25	E (E = >25-75% remaining)
Cc1c(-c2c(-c3ccc4c(c3)CN(C3CCC(=O)NC3=O)C4=O)ncn2C)cnn1-c1ccccc1 (stereo not drawn) [Example 407]	C (C = 0-10% remaining)	< 25	≥ 25	E (E = >25-75% remaining)

Structure (SMILES)	CK1α Ymin (CK1α)	DC50 (CK1α) [nM]	DC50 (GSPT1) [nM]	GSPT1 Ymin (GSPT1)
CN1CCN(c2cccc(-c3c(-c4ccc5c(c4)CN(C4CCC(=O)NC4=O)C5=O)ncn3C)c2)CC1 (stereo not drawn) [Example 408]	E (E = >25-75% remaining)	< 25	≥ 25	
Cn1ncc(-c2ccc3c(c2)CN(C2CCC(=O)NC2=O)C3=O)c1-c1cccc(CCCCCCc2ccccc2)c1 (stereo not drawn) [Example 409]	E (E = >25-75% remaining)	≥ 25	≥ 25	F (F = >75-100% remaining)
CCOC(=O)Cc1cccc(-c2c(-c3ccc4c(c3)CN(C3CCC(=O)NC3=O)C4=O)cnn2C)c1 (stereo not drawn) [Example 410]	E (E = >25-75% remaining)	< 25	≥ 25	F (F = >75-100% remaining)
COCCCOc1ccc(-c2c(-c3ccc4c(c3)CN(C3CCC(=O)NC3=O)C4=O)cnn2C)cc1 (stereo not drawn) [Example 411]	E (E = >25-75% remaining)	< 25	≥ 25	F (F = >75-100% remaining)
Cn1ncc(-c2ccc3c(c2)CN(C2CCC(=O)NC2=O)C3=O)c1-c1cccc(N2CCNCC2)c1 (stereo not drawn) [Example 412]	E (E = >25-75% remaining)	≥ 25	≥ 25	F (F = >75-100% remaining)
Cn1ncc(-c2ccc3c(c2)CN(C2CCC(=O)NC2=O)C3=O)c1-c1ccc(C2CCNCC2)cc1 (stereo not drawn) [Example 413]	E (E = >25-75% remaining)	≥ 25	≥ 25	F (F = >75-100% remaining)
Cn1ncc(-c2ccc3c(c2)CN(C2CCC(=O)NC2=O)C3=O)c1-c1ccc(CN2CCNCC2)cc1 (stereo not drawn) [Example 414]	E (E = >25-75% remaining)	≥ 25	≥ 25	F (F = >75-100% remaining)
Cn1cc(-c2ccc3c(c2)CN(C2CCC(=O)NC2=O)C3=O)nc1C1OCCCO1 (stereo not drawn) [Example 415, 3-(5-(2-(1,3-dioxan-2-yl)-1-methyl-1H-imidazol-4-yl)-1-oxoisoindolin-2-yl) piperidine-2,6-dione]	E (E = >25-75% remaining)	< 25	≥ 25	F (F = >75-100% remaining)
Cn1ncc(-c2ccc3c(c2)CN(C2CCC(=O)NC2=O)C3=O)c1-c1ccc(OC(F)F)cc1 (stereo not drawn) [Example 416, 3-(5-(5-(4-(difluoromethoxy)phenyl)-1-methyl-1H-pyrazol-4-yl)-1-oxoisoindolin-2-yl)piperidine-2,6-dione]	E (E = >25-75% remaining)	< 25	≥ 25	F (F = >75-100% remaining)
COc1ccc(-c2c(-c3ccc4c(c3)CN(C3CCC(=O)NC3=O)C4=O)cnn2C(F)F)cc1F (stereo not drawn) [Example 417, 3-(5-(1-(difluoromethyl)-5-(3-fluoro-4-methoxyphenyl)-1H-pyrazol-4-yl)-1-oxoisoindolin-2-yl)piperidine-2,6-dione]	D (D = >10- 25% remaining)	< 25	≥ 25	F (F = >75-100% remaining)
COc1ccc(-c2c(-c3ccc4c(c3)CN(C3CCC(=O)NC3=O)C4=O)cnn2C(F)F)cc1 (stereo not drawn) [Example 418, 3-(5-(1-(difluoromethyl)-5-(4-methoxyphenyl)-1H-pyrazol-4-yl)-1-oxoisoindolin-2-yl)piperidine-2,6-dione]	C (C = 0-10% remaining)	< 25	≥ 25	E (E = >25-75% remaining)
Cn1c(C2OCCCO2)nc(-c2ccc3c(c2)CN(C2CCC(=O)NC2=O)C3=O)c1-c1ccccc1 (stereo not drawn) [Example 419, 3-(5-(2-(1,3-dioxan-2-yl)-1-methyl-5-phenyl-1H-imidazol-4-yl)-1-oxoisoindolin-2-yl)piperidine-2,6-dione]	C (C = 0-10% remaining)	< 25	≥ 25	F (F = >75-100% remaining)
Cn1c(C2CCOCC2)nc(-c2ccc3c(c2)CN(C2CCC(=O)NC2=O)C3=O)c1-c1cccnc1 (stereo not drawn) [Example 420, 3-(5-(1-methyl-5-(pyridin-3-yl)-2-(tetrahydro-2H-pyran-4-yl)-1H-imidazol-4-yl)-1-oxoisoindolin-2-yl)piperidine-2,6-dione]	C (C = 0-10% remaining)	< 25	≥ 25	F (F = >75-100% remaining)
O=C1CCC(N2Cc3cc(-c4cn(C(F)F)nc4-c4ccc5c(c4)CCO5)ccc3C2=O)C(=O)N1 (stereo not drawn) [Example 423, 3-(5-(1-(difluoromethyl)-3-(2,3-dihydrobenzofuran-5-yl)-1H-pyrazole-4-yl)-1-oxoisoindolin-2-yl)piperidine-2,6-dione]	D (D = >10- 25% remaining)	< 25	≥ 25	F (F = >75-100% remaining)
O=C1CCC(N2Cc3cc(-c4cnn(C(F)F)c4-c4ccc5c(c4)CCO5)ccc3C2=O)C(=O)N1 (stereo not drawn) [Example 424, 3-(5-(1-(difluoromethyl)-5-(2,3-dihydrobenzofuran-5-yl)-1H-pyrazol-4-yl)-1-oxoisoindolin-2-yl)piperidine-2,6-dione]	D (D = >10- 25% remaining)	< 25	≥ 25	F (F = >75-100% remaining)

Source: US20240158370A1, “CK1 alpha AND DUAL CK1 alpha / GSPT1 DEGRADING COMPOUNDS” (Innovo Therapeutics, Inc., priority 2022, published 2024)
